{
  "source": "patent US20110039783A1",
  "about": "“PEPTIDE HAVING HYPOTENSIVE ACTIVITY” (DAIICHI SANKYO COMPANY LIMITED, priority 2007, published 2011)",
  "key": {"[1]": {"system": "blood pressure of anesthetized Sprague-Dawley IGS male rats", "assay": "Hypotensive activity in anesthetized rats, invasive blood pressure measurement after intravenous administration", "type": "in vivo, rat", "conditions": "for Hypotensive activity (dose/rat) 10 nmol / Hypotensive activity (dose/rat) 30 nmol: intravenous; for Hypotensive activity (dose/rat) 10 nmol: 10 nmol/rat; for Hypotensive activity (dose/rat) 30 nmol: 30 nmol/rat"}, "[2]": {"system": "blood pressure of awake Sprague-Dawley IGS male rats", "assay": "Hypotensive activity on awake rats", "type": "in vivo, rat", "set-up": "key to Hypotensive activity (dose/rat) 10 nmol / Hypotensive activity (dose/rat) 30 nmol: Extremely strong activity (+++): A decrease in systolic blood pressure is 30 mmHg or more, and the time required for recovery is 5 minutes or more.; Strong activity (++): A decrease in systolic blood pressure is 20 mmHg or more and less than 30 mmHg, or the time required for recovery is less than 5 minutes.; Activity observed (+): A decrease in systolic blood pressure is less than 20 mmHg.; Activity not observed (−)", "procedure": "50 mg/kg pentobarbital sodium was intraperitoneally administered to 8- to 10-week-old Sprague-Dawley IGS male rats (Charles River Laboratories Japan, Inc.) for anesthesia. Thereafter, a jugular vein cannula (Silascon 0.5-1.0) was inserted into each rat for use in peptide administration, and a carotid artery cannula (PE50) was inserted into each rat for use in the measurement of blood pressure. At least 3 hours after the surgery, it was confirmed that the rats were awoken from the anesthesia based on general conditions such as the posture, respiration, and the like of the rats. Thereafter, the rats were subjected to the experiment.\nThe carotid artery cannula was connected with a pressure transducer (PE23XL; manufactured by Nihon Kohden Corporation), and an apparatus formed by incorporating a blood pressure measurement unit (AP-641G; manufactured by Nihon Kohden Corporation) and an instantaneous heart rate measurement unit (AT-601G; manufactured by Nihon Kohden Corporation) into a multi-purpose preamplifier (RP-6004; manufactured by Nihon Kohden Corporation) was used to record the blood pressure and heart rate of each rat. The blood pressure was calibrated using a mercury manometer included in a stand-type electromanometer (MP-25S; manufactured by Nihon Kohden Corporation). The recording paper was adjusted, such that 20 mm or 40 mm on the recording paper corresponded to 100 mmHg. A solvent in which each peptide had been dissolved was used as a negative control in blood pressure fluctuation.\nEach peptide was dissolved in a concentration of 1 mM in a 5% mannitol solution to prepare a peptide solution. Thereafter, depending on dose, it was diluted with a 5% mannitol solution. In the case of the dose of 10 nmol/rat, a 1 mM peptide solution was 30 times diluted, and 300 μL of the diluted solution was administered. In the case of the dose of 30 nmol/rat, a 1 mM peptide solution was 10 times diluted, and 300 μl of the diluted solution was administered. In the case of the dose of 100 nmol/rat, a 1 mM peptide solution was 3 times diluted, and 300 μL of the diluted solution was administered. Each peptide was intravenously administered via the jugular vein cannula, and the systolic blood pressure, diastolic blood pressure, and heart rate were then measured.\nThe definition of the strength of hypotensive activity was the same as that of Example 3."}, "[3]": {"system": "blood pressure of awake C57BL/6 mice", "assay": "Hypotensive activity on awake mice (tail cuff, systolic blood pressure)", "type": "in vivo, mouse", "conditions": "caudal vein, 0.1 and 1 mg/kg, FIG. 2, listed as HC021-007", "procedure": "A C57BL/6 mice with a body weight of 30 to 40 g (Charles River Laboratories Japan, Inc.) were each placed in a retaining appliance of a non-preheating, non-invasive blood pressure monitor for mice and rats (MODEL MK-2000; Muromachi Kikai Co., Ltd.), and a cuff-pulse sensor was then attached to the root of the tail. After confirming that the blood pressure of each mouse had been stable, the mouse was subjected to the experiment.\nA peptide solution was prepared by diluting each peptide with a normal saline, depending on the dose. In the case of the dose of 0.1 mg/kg, a 0.02 mg/mL peptide solution was prepared. In the case of the dose of 1 mg/kg, a 0.2 mg/mL peptide solution was prepared. The amount of the solution to be administered was set at 5 mL/kg. As a positive control, a human atrial natriuretic peptide (hANP) was used. As a negative control, a normal saline was used. Each peptide was administered via the caudal vein using a syringe with a 29G needle. Three and ten minutes after the administration, the systolic blood pressure and the heart rate were measured."}},
  "note": "Entries after “also recorded” stand apart in the source; their conditions may differ.",
  "data": [
    {"substance": "ATVRNEDKWKPLNNPRNRDLFFRRLQAYFK-amide (C-terminal amide) [Compound 5]", "values": [
      {"measurement": "Hypotensive activity (dose/rat) 10 nmol", "setting": "[1]; Table 1, anesthetized rats", "value": "++ (Strong activity (++): A decrease in systolic blood pressure is 20 mmHg or more and less than 30 mmHg, or the time required for recovery is less than 5 minutes.)"},
      {"measurement": "Hypotensive activity (dose/rat) 30 nmol", "setting": "[1]; Table 1, anesthetized rats", "value": "+++ (Extremely strong activity (+++): A decrease in systolic blood pressure is 30 mmHg or more, and the time required for recovery is 5 minutes or more.)"},
      {"measurement": "Hypotensive activity (dose/rat) 10 nmol", "setting": "[1]; Table 2, anesthetized rats", "value": "++ (Strong activity (++): A decrease in systolic blood pressure is 20 mmHg or more and less than 30 mmHg, or the time required for recovery is less than 5 minutes.)"},
      {"measurement": "Hypotensive activity (dose/rat) 30 nmol", "setting": "[1]; Table 2, anesthetized rats", "value": "+++ (Extremely strong activity (+++): A decrease in systolic blood pressure is 30 mmHg or more, and the time required for recovery is 5 minutes or more.)"},
      {"measurement": "Hypotensive activity (dose/rat) 10 nmol", "setting": "[1]; Table 3, anesthetized rats", "value": "++ (Strong activity (++): A decrease in systolic blood pressure is 20 mmHg or more and less than 30 mmHg, or the time required for recovery is less than 5 minutes.)"},
      {"measurement": "Hypotensive activity (dose/rat) 30 nmol", "setting": "[1]; Table 3, anesthetized rats", "value": "+++ (Extremely strong activity (+++): A decrease in systolic blood pressure is 30 mmHg or more, and the time required for recovery is 5 minutes or more.)"},
      {"measurement": "dose dependence of hypotensive activity", "setting": "[1]; anesthetized rats, 10, 30, 100 nmol/rat", "value": "enhanced their hypotensive activity in a dose-dependent manner"},
      {"measurement": "hypotensive activity (in words)", "setting": "[1]; anesthetized rats, Table 1 and FIG. 1, 10 or 30 nmol/rat, listed as HC021-007", "value": "observed to have a hypotensive activity; also recorded: act to lower the blood pressure of rats"},
      {"measurement": "hypotensive activity (in words)", "setting": "[2]", "value": "observed to have a hypotensive activity even on the awake rats"},
      {"measurement": "Hypotensive activity (dose/rat) 10 nmol", "setting": "[2]; Table 4, intravenous, 10 nmol/rat", "value": "−"},
      {"measurement": "Hypotensive activity (dose/rat) 30 nmol", "setting": "[2]; Table 4, intravenous, 30 nmol/rat", "value": "++ (Strong activity (++): A decrease in systolic blood pressure is 20 mmHg or more and less than 30 mmHg, or the time required for recovery is less than 5 minutes.)"},
      {"measurement": "Hypotensive activity (dose/rat) 100 nmol", "setting": "[2]; Table 4, intravenous, 100 nmol/rat", "value": "+++ (Extremely strong activity (+++): A decrease in systolic blood pressure is 30 mmHg or more, and the time required for recovery is 5 minutes or more.)"},
      {"measurement": "hypotensive activity (in words), change in systolic blood pressure", "setting": "[3]", "value": "exhibited a hypotensive activity even on the awake mice; also recorded: lower the blood pressure of awake mice"}
    ]}
  ]
}
